Laboratory results taken from patent US11827628B2, “Compositions and methods for inhibition of the JAK pathway” (Rigel Pharmaceuticals, Inc., priority 2005, dated 2023).
Structures can show the parent of a compound that is named as a salt. Where two headings read alike, the source gives them in different places.

Key:
[1] = system: IL-4 stimulated expression of CD23 in human Ramos B cells (JAK-1 and JAK-3); experiment: Assay for Ramos B-Cell Line Stimulated with IL-4 (CD23 upregulation, FACS); assay type: cell-based; conditions: read-out: IC50, Example 41
Summary of the method: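 Read-out is surface CD23 by FACS after anti-CD23-PE staining, giving IC50. Before this, cells were stimulated 20-24 h with 50 units/mL (final) human IL-4, following 1 h compound or vehicle pre-treatment at 37 °C; log-phase Ramos B cells, 5×10^4 per well in 5% serum RPMI.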

[2] = system: up-regulation of ICAM-1 (CD54) by IFNγ in U937 human monocytic cells; experiment: U937 IFNγ ICAM1 FACS Assay; assay type: cell-based; conditions: ICAM-1 expression by FACS, read-out: IC50, Example 44
Summary of the method: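 Readout was the geometric-mean APC anti-ICAM-1 signal by FACS on live U937 monocytic cells, with % live cells also recorded. Cells were exposed to compounds (8 points, 3-fold dilutions, duplicates) for 30 min at 37 °C before 18–24 h of IFNγ stimulation. EC50 values were computed from the dose curve.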

[3] = Homo sapiens, Ramos, Ramos B-cell line stimulated with IL-4, CD23 expression by FACS
[4] = Homo sapiens, U-937, U937 cells stimulated with IFNγ
[5] = Ramos B cells stimulated with IL-4, CD23 expression by FACS
[6] = U937 cells stimulated with IFNγ

Row | SMILES | IC50 [1, 3] [nM] | IC50 [2, 4] [nM] | IC50 [1, 5] [nM] | IC50 [2, 6] [nM] | IC50 ([1]; Homo sapiens, Ramos, Ramos B cells stimulated with IL-4, CD23 expression by FACS) [nM]
1 | CNC(=O)COc1ccc(Nc2nc(Nc3cccc(S(N)(=O)=O)c3)ncc2C)cc1Cl [Compound I-150, N2-(3-Aminosulfonylphenyl)-N4-(3-chloro-4-methylaminocarbonylmethoxyphenyl)-5-methyl-2,4-pyrimidinediamine] | 65.7 | 10500 |  |  | 
2 | CNC(=O)COc1ccc(Nc2nc(Nc3ccc(C)c(S(N)(=O)=O)c3)ncc2C)cc1F [Compound I-156, N2-(3-Aminosulfonyl-4-methylphenyl)-N4-(3-fluoro-4-methylaminocarbonylmethoxyphenyl)-5-methyl-2,4-pyrimidinediamine] | 65.5 | 2620 |  |  | 
3 | Cc1ccc(Nc2ncc(F)c(Nc3ccc(OC4CCN(C)CC4)cc3)n2)cc1S(N)(=O)=O [II-7, N2-(3-Aminosulfonyl-4-methylphenyl)-5-fluoro-N4-{4-[(1-methylpiperidin-4-yl)oxy]phenyl}-2,4-pyrimidinediamine] | 144 | 1630 |  |  | 
4 | COc1cc(Nc2nc(Nc3ccc(C)c(S(N)(=O)=O)c3)ncc2F)ccc1OCC#N [Compound I-47, N2-(3-Aminosulfonyl-4-methylphenyl)-N4-(4-cyanomethoxy-3-methoxyphenyl)-5-fluoro-2,4-pyrimidinediamine] | 120 | 759 |  |  | 
5 | CNS(=O)(=O)c1cc(Nc2ncc(F)c(Nc3ccc(-c4cnco4)cc3)n2)ccc1C [IV-7, 5-Fluoro-N2-[3-(N-methylaminosulfony)-4-methylphenyl]-N4-[4-(1,3-oxazol-5-yl)phenyl]-2,4-pyrimidinediamine] |  |  | 112 | 1240 | 
6 | NC(=O)COc1ccc(Nc2nc(Nc3cccc(S(N)(=O)=O)c3)ncc2F)cc1F [Compound I-101, N4-(4-Aminocarbonylmethoxy-3-fluorophenyl)-N2-(3-aminosulfonylphenyl)-5-fluoro-2,4-pyrimidinediamine] | 328 | 36600 |  |  | 
7 | CNS(=O)(=O)c1cc(Nc2ncc(F)c(Nc3cccc(-c4cnco4)c3)n2)ccc1C [IV-4, 5-Fluoro-N2-[3-(N-methylaminosulfony)-4-methylphenyl]-N4-[3-(1,3-oxazol-5-yl)phenyl]-2,4-pyrimidinediamine] |  |  | 151 | 2420 | 
8 | Cc1ccc(Nc2ncc(F)c(Nc3ccc(OC4CCN(C)CC4)c(C(F)(F)F)c3)n2)cc1S(N)(=O)=O [II-6, N2-(3-Aminosulfonyl-4-methylphenyl)-5-fluoro-N4-{4-[(1-methylpiperidin-4-yl)oxy]-3-trifluoromethylphenyl}-2,4-pyrimidinediamine] | 111 | 6390 |  |  | 
9 | NC(=O)COc1ccc(Nc2nc(Nc3cccc(S(N)(=O)=O)c3)ncc2F)cc1Cl [Compound I-98, N4-(4-Aminocarbonylmethoxy-3-chlorophenyl)-N2-(3-aminosulfonylphenyl)-5-fluoro-2,4-pyrimidinediamine] | 295 | 11000 |  |  | 
10 | N#CCOc1ccc(Nc2nc(Nc3ccc(S(N)(=O)=O)cc3)ncc2F)cc1F [Compound I-44, N2-(4-Aminosulfonylphenyl)-N4-(4-cyanomethoxy-3-fluorophenyl)-5-fluoro-2,4-pyrimidinediamine] | 53.2 | 5070 |  |  | 
11 | Cc1ccc(Nc2ncc(F)c(Nc3cnc4c(c3)OC(C)(C)C(=O)N4CC#N)n2)cc1S(N)(=O)=O [Compound V-14, N2-(3-Aminosulfonyl-4-methylphenyl)-N4-[2,2-dimethyl-3-oxo-4-cyanomethyl-5-pyrid[1,4]oxazin-7-yl]-5-fluoro-2,4-pyrimidinediamine] |  |  | 197 | 6850 | 
12 | Cc1cnc(Nc2cccc(S(N)(=O)=O)c2)nc1Nc1ccc(OCC(=O)N(C)C)c(Cl)c1 [Compound I-135, N2-(3-Aminosulfonylphenyl)-N4-(3-chloro-4-dimethylaminocarbonylmethoxyphenyl)-5-methyl-2,4-pyrimidinediamine] | 112 | 1830 |  |  | 
13 | Cc1cnc(Nc2ccc(S(N)(=O)=O)cc2)nc1Nc1ccc(OCC(N)=O)cc1 [Compound I-108, N4-(4-Aminocarbonylmethoxyphenyl)-N2-(4-aminosulfonylphenyl)-5-methyl-2,4-pyrimidinediamine] | 145 | 3970 |  |  | 
14 | Cc1ccc(Nc2ncc(F)c(Nc3ccc(OCC(N)=O)c(Cl)c3)n2)cc1S(N)(=O)=O [Compound I-99, N4-(4-Aminocarbonylmethoxy-3-chlorophenyl)-N2-(3-aminosulfonyl-4-methylphenyl)-5-fluoro-2,4-pyrimidinediamine] | 68.6 | 3780 |  |  | 

Continued, values first:

Row | IC50 [1, 3] [nM] | IC50 [2, 4] [nM] | IC50 [1, 5] [nM] | IC50 [2, 6] [nM] | IC50 ([1]; Homo sapiens, Ramos, Ramos B cells stimulated with IL-4, CD23 expression by FACS) [nM] | SMILES
15 |  |  | 174 | 1190 |  | NS(=O)(=O)c1cccc(Nc2ncc(F)c(Nc3ccc(Cc4ccncc4)cc3)n2)c1 [III-129, N2-(3-Aminosulfonylphenyl)-5-fluoro-N4-[4-(4-pyridylmethyl)phenyl]-2,4-pyrimidinediamine Methanesulfonic Acid Salt]
16 |  |  | 242 | 2160 |  | Cc1ccc(Nc2ncc(F)c(Nc3ccc(CN4CCOCC4)cc3)n2)cc1S(N)(=O)=O [III-104, N2-(3-Aminosulfonyl-4-methylphenyl)-5-fluoro-N4-(4-N-morpholinomethylenephenyl)-2,4-pyrimidinediamine]
17 |  | 2940 |  |  | 223 | Cc1cc(Nc2nc(Nc3ccc(S(N)(=O)=O)cc3)ncc2F)cc(C)c1N1CCN(C)CC1 [IX-44, N2-(4-Aminosulfonylphenyl)-N4-[3,5-dimethyl-4-(4-methylpiperazin-1-yl]phenyl)-5-fluoro-2,4-pyrimidinediamine]
18 | 104 | 447 |  |  |  | NS(=O)(=O)c1cccc(Nc2ncc(F)c(NCCc3ccc(-c4ccncc4)cc3)n2)c1 [III-76, N2-(3-Aminosulfonylphenyl)-5-fluoro-N4-[4-(4-pyridinyl)phenethyl]-2,4-pyrimidinediamine]
19 | 45.4 | 444 |  |  |  | N#CCCc1ccc(Nc2nc(Nc3cccc(S(N)(=O)=O)c3)ncc2F)cc1Cl [III-22, N2-(3-Aminosulfonylphenyl)-N4-[3-chloro-4-(2-cyanoethyl)phenyl]-5-fluoro-2,4-pyrimidinediamine]
20 | 36.6 | 544 |  |  |  | N#CCCc1ccc(Nc2nc(Nc3cccc(S(N)(=O)=O)c3)ncc2F)cc1F [III-18, N2-(3-Aminosulfonylphenyl)-N4-[4-(2-cyanoethyl)-3-fluorophenyl]-5-fluoro-2,4-pyrimidinediamine]
